Experiments:
[1] = Solubility of Tazarotene in water; format: physicochemical
Excerpt: The invention is directed to capsule systems for the delivery of active agents, particularly retinoids. In a preferred example, it is known that the compound Tazarotene, known chemically as ethyl 6-[(4,4-dimethylthiochroman-6-yl)ethynyl]-nicotinate, having the molecular formula C21H21NO2S, is active in the treatment of acne and psoriasis. […] However, the solubility of Tazarotene in water is negligible.

[2] = Amount of Tazarotene solubilized in caprylic/capric triglyceride per capsule; format: physicochemical; conditions: caprylic/capric triglyceride vehicle
Excerpt: Importantly, the retinoid agent, Tazarotene, is fully dissolved in the vehicle in a conventional manner before incorporation into the capsule shell. The total dissolution of Tazarotene in the vehicle facilitates absorption from the gastro-intestinal tract by eliminating the need for drug dissolution prior to absorption.

[3] = women of child-bearing age who just get off treatment; cited from earlier work

Row | SMILES | solubility in water [1] | amount effectively solubilized in a capsule [2] | typical precautionary pregnancy wash-out period [3]
1 | CCOC(=O)c1ccc(C#Cc2ccc3c(c2)C(C)(C)CCS3)nc1 [Tazarotene, ethyl 6-[(4,4-dimethylthiochroman-6-yl)ethynyl]-nicotinate] | negligible | up to 34 mg | –
2 | COc1cc(C)c(/C=C/C(C)=C/C=C/C(C)=C/C(=O)O)c(C)c1C [acitretin] | – | – | three years
3 | CC1=C(/C=C/C(C)=C/C=C/C(C)=C\C(=O)O)C(C)(C)CCC1 [isotretinoin] | – | – | one month

— patent US6656500B2, “Capsule system” (Allergan, Inc., priority 1999, dated 2003)
